{
  "source": "patent US20260193180A1",
  "about": "“AUTOPHAGY INDUCING COMPOUNDS AND USES THEREOF” (SAMSARA THERAPEUTICS INC., priority 2022, published 2026)",
  "note": "Structures can show the parent of a compound that is named as a salt.",
  "data": [
    {"system": "U2OS cell line stabling expressing RFP-eGFP-hLC3b", "experiment": "Tandem reporter assay (autophagic flux), RFP-only puncta (autolysosomes)", "assay_type": "cell-based", "details": "Homo sapiens, 0.5 μM, average of two runs, read-out: Activity (Autolysosome % DMSO activity)", "protocol": "(§1) Selected compounds of this invention were also assessed for their ability to stimulate autophagy using a U2OS cell line stabling expressing RFP-eGFP-hLC3b (a tandem reporter cell line). This assay is further described in WO 2023/089074.\n(§2) LC3b is a protein found in the membrane of autophagosomes which has been used to generate genetic reporters of autophagy in cells. In these systems a tandem fusion of LC3b is engineered with two fluorescent proteins of different wavelengths: one which is acid sensitive (for example eGFP, which fluoresces green) and the other which is acid insensitive (for example RFP, which fluoresces red). Cells expressing RFP-eGFP-hLC3b can be examined using fluorescent microscopy: the autophagosomes present will fluoresce in both channels (either yellow in an overlay of both channels or puncta that are present in both the individual red and green channels) but the autolysosomes present will fluoresce in the RFP (red) channel only. Using a fluorescent microscope, the number of autophagosomes and autolysosomes can be counted, allowing for the monitoring of both the induction of autophagy (total puncta count) and the rate of autophagic flux (ratio of red-only to red-and-green puncta). The influence of small molecules on autophagy induction and flux can be assessed using this system by comparison to a non-treated control.\n(§3) Representative Procedure: Human osteosarcoma U20S cells stably expressing RFP-eGFP-hLC3b were seeded (10,000 cells/well) into a 96-well glass-bottom plate (Cell Carrier Ultra, Perkin Elmer) in DMEM Glutamax media (Gibco) supplemented with 10% Fetal Bovine Serum (FBS) and antibiotics (100 μg/ml penicillin, 100 μg/ml streptomycin, Invitrogen), then incubated overnight in a humified atmosphere at 37° C. and 5% CO2. The cells were then treated with the compounds of interest, dissolved in DMSO, in a duplicated 5- or 10-point dose-response. 8 wells were treated with an equivalent volume of DMSO, 4 with 0.3 μM torin-1 as a positive control (MCE) and 4 wells with 0.4 μM torin-1 plus 0.2 μM bafilomycin (MCE) as a control for flux inhibition. The cells were returned to the incubator and the treatment continued for 24 hours. After treatment, the media was aspirated off and the cells fixed with a solution of 4% formaldehyde+1% glutaraldehyde (Sigma) in dPBS (plus magnesium and calcium, Gibco). Fixation was allowed to proceed for 15 minutes at room temperature then the fixative solution discarded and replaced with PBS (Gibco) plus Hoescht 33342 (1 μg/ml, Sigma). After 30 minutes the plates were imaged on an Opera Phenix confocal microscope (Perkin-Elmer) using a 40× water objective, collecting using DAPI, mCherry and GFP channels. Cells were detected based upon the staining of their nuclei with DAPI using the Harmony image analysis software (Perkin-Elmer) and the number of autophagosomes (GFP and RFP puncta) and autolysosomes (RFP only puncta) per cell were counted using the spot picking function within the software.", "units": {"activity at 0.5 µM": "%"}, "values": [
      {"smiles": "COCCOc1c(Cl)cc(CCN2CCC[C@@H](N)C2)cc1Cl", "note": "[Compound 76, (R)-1-(3,5-dichloro-4-(2-methoxyethoxy)phenethyl)piperidin-3-amine hydrochloride]", "activity at 0.5 µM": "150 to 200"},
      {"smiles": "CCOc1ccc(CN2CCC[C@H](N)C2)cc1Cl", "note": "[Compound 92, (S)-1-[(3-chloro-4-ethoxyphenyl)methyl]-3-piperidylamine hydrochloride]", "activity at 0.5 µM": "150 to 200"},
      {"smiles": "COCCOc1c(Cl)cc(CCN2CCC[C@H](N)C2)cc1Cl", "note": "[Compound 72, (S)-1-(3,5-dichloro-4-(2-methoxyethoxy)phenethyl)piperidin-3-amine hydrochloride]", "activity at 0.5 µM": "150 to 200"}
    ]},
    {"system": "U2OS cell line stabling expressing RFP-eGFP-hLC3b", "experiment": "Tandem reporter assay (autophagic flux), RFP-only puncta (autolysosomes)", "assay_type": "cell-based", "details": "Homo sapiens, 0.75 μM, one run, read-out: Activity (Autolysosome % DMSO activity)", "protocol": "as §1, §2, §3", "units": {"activity at 0.75 µM": "%"}, "values": [
      {"smiles": "CCOc1c(Cl)cc(CN2CC[C@@H](CN)C2)cc1Cl", "note": "[Compound 70, (S)-(1-(3,5-dichloro-4-ethoxybenzyl)pyrrolidin-3-yl)methanamine hydrochloride]", "activity at 0.75 µM": "150 to 200"}
    ]},
    {"system": "U2OS cell line stabling expressing RFP-eGFP-hLC3b", "experiment": "Tandem reporter assay (autophagic flux), RFP-only puncta (autolysosomes)", "assay_type": "cell-based", "details": "Homo sapiens, 0.833 μM, average of two runs, read-out: Activity (Autolysosome % DMSO activity)", "protocol": "as §1, §2, §3", "units": {"activity at 0.833 µM": "%"}, "values": [
      {"smiles": "CCOc1ccc(CCN2CCC(N)CC2)cc1Cl", "note": "[Compound 71, 1-(3-chloro-4-ethoxyphenethyl)piperidin-4-amine hydrochloride]", "activity at 0.833 µM": "150 to 200"}
    ]},
    {"system": "U2OS cell line stabling expressing RFP-eGFP-hLC3b", "experiment": "Tandem reporter assay (autophagic flux), RFP-only puncta (autolysosomes)", "assay_type": "cell-based", "details": "Homo sapiens, 1.25 μM, average of two runs, read-out: Activity (Autolysosome % DMSO activity)", "protocol": "as §1, §2, §3", "units": {"activity at 1.25 µM": "%"}, "values": [
      {"smiles": "N[C@@H]1CCN(CCc2ccc(OCC3CC3)c(Cl)c2)C1", "note": "[Compound 99, (R)-1-{2-[3-chloro-4-(cyclopropylmethoxy)phenyl]ethyl}-3-pyrrolidinylamine hydrochloride]", "activity at 1.25 µM": "150 to 200"},
      {"smiles": "N[C@H]1CCN(Cc2cc(Cl)c(OCC3CC3)c(Cl)c2)C1", "note": "[Compound 77, (S)-1-(3,5-dichloro-4-(cyclopropylmethoxy)benzyl)pyrrolidin-3-amine hydrochloride]", "activity at 1.25 µM": "250 to 300"},
      {"smiles": "CCOc1ccc(C#N)cc1CCN1CCC[C@@H](N)C1", "note": "[Compound 84, (R)-3-(2-(3-aminopiperidin-1-yl)ethyl)-4-ethoxy benzonitrile hydrochloride]", "activity at 1.25 µM": "200 to 250"},
      {"smiles": "NC1CCN(Cc2ccc(OCC3CC3)c(Cl)c2)CC1", "note": "[Compound 81, 1-(3-chloro-4-(cyclopropylmethoxy)benzyl)piperidin-4-amine hydrochloride]", "activity at 1.25 µM": "150 to 200"},
      {"smiles": "CCOc1ccc(C#N)cc1CCN1CCC[C@H](N)C1", "note": "[Compound 83, (S)-3-(2-(3-aminopiperidin-1-yl)ethyl)-4-ethoxybenzonitrile hydrochloride]", "activity at 1.25 µM": "200 to 250"},
      {"smiles": "CCOc1c(Cl)cc(CN2CCC(N)CC2)cc1Cl", "note": "[Compound 90, 1-[(3,5-Dichloro-4-ethoxyphenyl)methyl]-4-piperidylamine hydrochloride]", "activity at 1.25 µM": "200 to 250"},
      {"smiles": "COCCOc1ccc(CN2CCC(N)CC2)cc1Cl", "note": "[Compound 95, 1-{[3-chloro-4-(2-methoxyethoxy)phenyl]methyl}-4-piperidylamine hydrochloride]", "activity at 1.25 µM": "200 to 250"},
      {"smiles": "N[C@H]1CCCN(CCc2ccc(OCC3CC3)c(Cl)c2)C1", "note": "[Compound 79, (S)-1-(3-chloro-4-(cyclopropylmethoxy)phenethyl)piperidin-3-amine formate salt]", "activity at 1.25 µM": "250 to 300"},
      {"smiles": "CCOc1ccc(C#N)cc1CCN1CC[C@H](N)C1", "note": "[Compound 86, (S)-3-(2-(3-aminopyrrolidin-1-yl)ethyl)-4-ethoxy benzonitrile hydrochloride]", "activity at 1.25 µM": "150 to 200"},
      {"smiles": "N[C@H]1CCCN(Cc2cc(Cl)c(OCC3CC3)c(Cl)c2)C1", "note": "[Compound 96, (S)-1-{[3,5-dichloro-4-(cyclopropylmethoxy)phenyl]methyl}-3-piperidylamine hydrochloride]", "activity at 1.25 µM": "200 to 250"},
      {"smiles": "N[C@@H]1CCCN(Cc2cc(Cl)c(OCC3CC3)c(Cl)c2)C1", "note": "[Compound 97, (R)-1-{[3,5-dichloro-4-(cyclopropylmethoxy)phenyl]methyl}-3-piperidylamine hydrochloride]", "activity at 1.25 µM": "150 to 200"},
      {"smiles": "CCOc1ccc(CCN2CC[C@@H](N)C2)cc1F", "note": "[Compound 88, (R)-1-[2-(4-ethoxy-3-fluorophenyl)ethyl]-3-pyrrolidinylamine hydrochloride]", "activity at 1.25 µM": "150 to 200"},
      {"smiles": "N[C@@H]1CCCN(CCc2cc(Cl)c(OCC3CC3)c(Cl)c2)C1", "note": "[Compound 78, (R)-1-(3,5-dichloro-4-(cyclopropylmethoxy)phenethyl)piperidin-3-amine hydrochloride]", "activity at 1.25 µM": "200 to 250"},
      {"smiles": "COCCOc1c(Cl)cc(CN2CCC(N)CC2)cc1Cl", "note": "[Compound 94, 1-{[3,5-dichloro-4-(2-methoxyethoxy)phenyl]methyl}-4-piperidylamine hydrochloride]", "activity at 1.25 µM": "150 to 200"},
      {"smiles": "COCCOc1ccc(CCN2CCC[C@@H](N)C2)cc1Cl", "note": "[Compound 89, (R)-1-{2-[3-chloro-4-(2-methoxyethoxy)phenyl]ethyl}-3-piperidylamine hydrochloride]", "activity at 1.25 µM": "150 to 200"},
      {"smiles": "N[C@@H]1CCN(Cc2cc(Cl)c(OCC3CC3)c(Cl)c2)C1", "note": "[Compound 73, (R)-1-(3,5-dichloro-4-(cyclopropylmethoxy)benzyl)pyrrolidin-3-amine hydrochloride]", "activity at 1.25 µM": "250 to 300"},
      {"smiles": "NC1CCN(Cc2cc(Cl)c(OCC3CC3)c(Cl)c2)CC1", "note": "[Compound 98, 1-{[3,5-dichloro-4-(cyclopropylmethoxy)phenyl]methyl}-4-piperidylamine hydrochloride]", "activity at 1.25 µM": "150 to 200"},
      {"smiles": "CCOc1ccc(CN2CCC[C@@H](N)C2)cc1Cl", "note": "[Compound 93, (R)-1-[(3-chloro-4-ethoxyphenyl)methyl]-3-piperidylamine hydrochloride]", "activity at 1.25 µM": "150 to 200"},
      {"smiles": "N[C@@H]1CCCN(CCc2ccc(OCC3CC3)c(Cl)c2)C1", "note": "[Compound 80, (R)-1-(3-chloro-4-(cyclopropylmethoxy)phenethyl)piperidin-3-amine formate salt]", "activity at 1.25 µM": "250 to 300"},
      {"smiles": "N[C@H]1CCCN(CCc2cc(Cl)c(OCC3CC3)c(Cl)c2)C1", "note": "[Compound 74, (S)-1-(3,5-dichloro-4-(cyclopropylmethoxy)phenethyl)piperidin-3-amine hydrochloride]", "activity at 1.25 µM": "> 300"},
      {"smiles": "N[C@H]1CCN(CCc2ccc(OCC3CC3)c(Cl)c2)C1", "note": "[Compound 100, (S)-1-{2-[3-chloro-4-(cyclopropylmethoxy)phenyl]ethyl}-3-pyrrolidinylamine hydrochloride]", "activity at 1.25 µM": "150 to 200"},
      {"smiles": "CCOc1ccc(C#N)cc1CCN1CC[C@@H](N)C1", "note": "[Compound 87, 3-{2-[(R)-3-amino-1-pyrrolidinyl]ethyl}-4-ethoxybenzonitrile hydrochloride]", "activity at 1.25 µM": "150 to 200"},
      {"smiles": "CCOc1ccc(CN2CCC(N)CC2)cc1Cl", "note": "[Compound 75, 1-(3-chloro-4-ethoxybenzyl)piperidin-4-amine hydrochloride]", "activity at 1.25 µM": "200 to 250"}
    ]},
    {"system": "U2OS cell line stabling expressing RFP-eGFP-hLC3b", "experiment": "Tandem reporter assay (autophagic flux), RFP-only puncta (autolysosomes)", "assay_type": "cell-based", "details": "Homo sapiens, 1.25 μM, one run, read-out: Activity (Autolysosome % DMSO activity)", "protocol": "as §1, §2, §3", "units": {"activity at 1.25 µM": "%"}, "values": [
      {"smiles": "CCOc1c(Cl)cc(CN2CC[C@H](CN)C2)cc1C#N", "note": "[Compound 82, (R)-5-((3-(aminomethyl)pyrrolidin-1-yl)methyl)-3-chloro-2-ethoxybenzonitrile hydrochloride]", "activity at 1.25 µM": "150 to 200"},
      {"smiles": "NC1CCN(CCc2cc(Cl)c(OCC3CC3)c(Cl)c2)CC1", "note": "[Compound 91, 1-{2-[3,5-Dichloro-4-(cyclopropylmethoxy)phenyl]ethyl}-4-piperidylamine hydrochloride]", "activity at 1.25 µM": "150 to 200"},
      {"smiles": "CCOc1ccc(CCN2CC[C@H](N)C2)cc1C#N", "note": "[Compound 85, (S)-5-(2-(3-aminopyrrolidin-1-yl)ethyl)-2-ethoxybenzonitrile hydrochloride]", "activity at 1.25 µM": "150 to 200"}
    ]}
  ]
}
